Measurements from US7019139B2, “Quinolinones and uses thereof” (ARIAD Pharmaceuticals, Inc., priority 2001, dated 2006).

Assay: Hydroxyapatite assay (hydroxyapatite adsorption chromatography, bone-targeting potential)
Format: binding
Conditions: corrected K = (retention time-void time)/void on TSK-Gel HA 1000 HPLC column; linear gradient 10 mM to 500 mM sodium phosphate, 0.15 N NaCl, pH 6.8
Procedure: Hydroxyapatite is the principal mineral component of bone. Hydroxyapatite adsorption chromatography is used as an assay to evaluate the bone-targeting potential of both individual bone-targeting moieties (“monomers”) and of pharmaceuticals incorporating bone-targeting groups.
This K value is corrected using two reference compounds to correct from inter-column and inter-system variation to obtain a K′ value.
Reference Compounds: K′ values were determined for known bone targeted compounds, the bisphosphonate, alendronate and tetracycline.

NCCCC(O)(P(=O)(O)O)P(=O)(O)O [Alendronate, alendronate]
K′ value: 3.7
